The values below come from patent US20260234159A1, “SMALL MOLECULE TREATMENT OF FATTY LIVER DISEASE AND HCC” (SCANDIEDGE THERAPEUTICS AB, priority 2023, published 2026).

Where two headings read alike, the source gives them in different places.

Data set [1] has as its system HepG2 cells. The data set is described as follows: Triglyceride (TAG) measurement assay, one week steatosis model. To be noted: for activity at 10 µM: Homo sapiens. Type of data set: cell-based, human. In a few lines: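 HepG2 cells steatosis-induced for one week in high-glucose DMEM/10% FBS with 10 μg/ml insulin and 10 μM T0901317, media changed at days 0, 3 and 5, with 10 μM test compound throughout. Triglyceride measured colorimetrically (OD 570 nm); viability by MTT.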

In data set [2] the test system is JNK1/2/3. Briefly: Western blot, JNK1/2/3 P54 and p46 isoforms. Type of data set: cell-based, human. To be noted: 10 μM, 2 days. On the procedure: HepG2 cells were seeded into a 6-well plate at 400,000 cells per well. After treatment with 10 μM of JNK-IN-5A and its derivatives for two days, lysates were harvested with CelLytic M (C2978, Sigma-Aldrich). […] SDS PAGE were performed using Mini-PROTEAN® TGX™ Precast Gels (Bio-Rad) and transferred using Trans-Blot® Turbo™ Transfer System (Bio-Rad). […] ImageQuantTMLAS 500 (29-0050-63, GE) was used to detect protein bands.

The subject of data set [3] is HepG2 cells. The data set is described as follows: Invasion assay (transwell). The class given is cell-based, human. To be noted: Homo sapiens, HepG2, 24 hr, read-out: invasiveness reduced by. In a few lines:
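HepG2 cells (100,000) in serum-free medium with compounds placed on collagen-coated 8 μm transwell membranes, with 10% FBS medium below as attractant. After one day at 37 °C, cells fixed in formaldehyde and stained with crystal violet. Invaded cells on the outer membrane imaged and counted.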

The test system of data set [4] is HepG2 cells. The data set is described as follows: Wound healing assay. Type of data set: cell-based. To be noted: Homo sapiens, HepG2, 96 h, day 4, untreated 100% wound closure, read-out: wound healing delayed by. The gist of the method: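 HepG2 monolayers grown to 95-100% confluence were scratched with a pipette tip and treated with compounds at 1 μM. Wounds were imaged from day 0 until closure in the control group, and wound area was measured from the images.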

Data set [5] is described as follows: In vivo toxicological study in rats: clinical observations and body weight. To be noted: 300 mg/kg oral administration. On the procedure: Forty-two male and forty-two female rats of the Wistar strain were allocated to the study. Three groups of three males and three females were given doses of 30, 100 and 300 mg/kg of target compounds (Table 8). The vehicle was 1.5 w/w % HPMC, 1.5 w/w % PS80 in 10 mM PBS, pH 7 and dose volume were 5 mL/kg.
The animals were acclimatised at least 14 day prior to the study and exposed to a 12 hours light, 12 hours dark light cycle. The formulations were administered via oral gavage. Administration occurred once daily in the morning for seven consecutive days.
A check of animal health and welfare status was done at least once on working days and weekend days.
Body weights were recorded the week before and within 24 hours before start of dosing, on Day 3 and on necropsy Day 8.

The mark [6] stands for this setting: 168 h, HepG2, 10 μM, one week steatosis induce media, Control 100.00, read-out: TAG (%).
Setting [7] is: HepG2, 168 h, ratio between TAG content and cell viability, Control 100.0, read-out: TAG/cell viability.

Turning to `N#Cc1c(NC(=O)c2cccc3ccccc23)sc2c1CCCC2` [JNK-IN-5A, N-(3-cyano-4,5,6,7-tetrahydrobenzo[b]thiophen-2-yl)-1-naphthamide], the values for the activity at 10 µM in data set [1] (setting [6]) and in data set [1] (setting [7]) were 33% and 58.4%, respectively. The “JNK1/2/3 p46 expression” value in data set [2] was determined as 0.88 times. Besides, the values for the inhibition at 1 µM in data set [3] and in data set [4] were 24.9% and 32.7%, respectively.

`COc1ccc(C(=O)Nc2sc3c(c2C#N)CCCCC3)cc1OC` [PKL-A135, N-(3-cyano-5,6,7,8-tetrahydro-4H-cyclohepta[b]thiophen-2-yl)-3,4-dimethoxy-benzamide]: the values for the activity at 10 µM in data set [1] (setting [6]) and in data set [1] (setting [7]) were 49.1% and 77.6%, respectively. For the same molecule, in data set [2], the “JNK1/2/3 p46 expression” value is given as 0.77 times. Further, the results for the inhibition at 1 µM in data set [3] and in data set [4] were 29.5% and 31.2%, respectively. For the same molecule, the “tolerability (adverse clinical signs, body weight, clinical pathology parameters)” value in data set [5] was “well tolerated”.

For the molecule `COc1ccccc1NC(=O)N1CCc2c(sc(NC(=O)c3cccc4ccccc34)c2C#N)C1` [PKL-A152], the “ratio between TAG content and cell viability” value in data set [1] is “low ratio between TAG content and cell viability”. Moreover, the figures for the activity at 10 µM in data set [1] (setting [6]) and in data set [1] (setting [7]) were 10.8% and 24.5%, respectively. In addition, the TAG/cell viability in data set [1] (ratio as printed in text with %) was 24.5%. Further, the “tolerability (adverse clinical signs, body weight, clinical pathology parameters)” value in data set [5] is on record as “well tolerated”.

`N#Cc1c(NC(=O)c2cccc3ccccc23)sc2c1CCN(C(=O)Nc1ccccc1OC(F)(F)F)C2` [PKL-A159]: the activity at 10 µM in data set [1] (setting [6]) was determined as 4.54%. Also, in data set [2], the “JNK1/2/3 p46 expression” value is listed as “not significantly altered”. For the same molecule, the inhibition at 1 µM in data set [3] was found to be 77.8%; in data set [4], 35.5%. The “tolerability (adverse clinical signs, body weight, clinical pathology parameters)” value in data set [5] was “well tolerated”.

For `N#Cc1c(NC(=O)c2cccc3ccccc23)sc2c1CCN(CC(=O)Nc1cccc(Br)c1)C2` [PKL-B171], the activity at 10 µM in data set [1] (setting [6]) came to 21.1%; in data set [1] (setting [7]), 95.7%. In addition, the “JNK1/2/3 p46 expression” value in data set [2] is 0.87 times. Moreover, the values for the inhibition at 1 µM in data set [3] and in data set [4] were 21.4% and 36.4%, respectively. The “tolerability (adverse clinical signs, body weight, clinical pathology parameters)” value in data set [5] is recorded as “well tolerated”.
